Assay results from ChEMBL document CHEMBL1127607, “Genetically evolved receptor models: a computational approach to construction of receptor models” (J Med Chem, 1994).

Organism: Homo sapiens
Experiment: Potency based on concentration of sweetener which matches the sweetness recognition threshold of sucrose (~2%)
Type: functional, organism-based

Structure (SMILES)	Log potency
COC(=O)[C@H](Cc1ccccc1)NC(=O)[C@@H](N)CC(=O)O	2.26
COC(=O)C(Cc1ccccc1)NC(=O)C(CC(=O)O)NC(=O)Nc1ccc(C#N)cc1 (configuration not stated)	4
CC(NC(=O)C(N)CC(=O)O)C(=O)NC1CCCC1 (configuration not stated)	1.7
N#Cc1ccc(NC(=O)NC(CC(=O)O)c2ccncc2)cc1 (configuration not stated)	3.3
CC(NC(=O)C(N)CC(=O)O)C(=O)NC1C(C)(C)CCC1(C)C (configuration not stated)	2.9
C[C@@H](N/C(=N\CC(=O)O)Nc1ccc(C#N)cc1)c1ccccc1	4.45
CC12CCC(C1)C(C)(C)C2OC(=O)C(NC(=O)C(N)CC(=O)O)c1ccco1 (configuration not stated)	4.22
N#Cc1ccc(N/C(=N/CC(=O)O)NCc2ccccc2)cc1	4.48
N#Cc1ccc(N/C(=N/CC(=O)O)NS(=O)(=O)c2ccccc2)cc1	4.48
O=C(O)CCNC(=O)Nc1ccc([N+](=O)[O-])cc1	2.85
CC12CCC(C1)C(C)(C)C2OC(=O)C(NC(=O)C(N)CC(=O)O)c1cccs1 (configuration not stated)	3.38
N#Cc1ccc(NC(=O)NCCC(=O)O)cc1	2.65
N#Cc1ccc(N/C(=N/CC(=O)O)NC2CCCCCCC2)cc1	5.23
N#Cc1ccc(N/C(S)=N/CCC(=O)O)cc1	3.32
N#Cc1ccc(NC(=O)NC(CC(=O)O)c2cccnc2)cc1 (configuration not stated)	4.3
N#Cc1ccc(NC(=O)NC(CC(=O)O)c2ccccc2)cc1 (configuration not stated)	4
O=C(O)C/N=C(\NCc1ccccc1)Nc1cc(Cl)cc(Cl)c1	4.9
N#CN/C(=N\CCC(=O)O)Nc1ccc(C#N)cc1	2.95
C[C@@H](N/C(=N\CC(=O)O)Nc1cc(Cl)cc(Cl)c1)c1ccccc1	5.08
N#CN/C(=N\CC(=O)O)Nc1ccc(C#N)cc1	3.85
COC(=O)C(Cc1ccccc1)NC(=O)C(CC(=O)O)/N=C(\S)Nc1ccc(C#N)cc1 (configuration not stated)	4.7
CC(NC(=O)C(N)CC(=O)O)C(=O)NC1C(C)(C)SC1(C)C (configuration not stated)	3.3
